ChEMBL document CHEMBL2413072, “Synthesis and in vitro anticancer studies of novel C-2 arylidene congeners of lantadenes” (2013)

Assays:
Type in all cases: functional
ACHN [1] = assay: Growth inhibition of human ACHN cells by sulforhodamine B assay
SW-620 = assay: Growth inhibition of human SW620 cells assessed as cell growth at 10^-4 M by sulforhodamine B assay; settings: read-out: Activity
MDA-MB-468 = assay: Growth inhibition of human MDA-MB-468 cells assessed as cell growth at 10^-8 M by sulforhodamine B assay; settings: read-out: Activity
SR = assay: Growth inhibition of human SR cells by sulforhodamine B assay
[2] = Growth inhibition of human HCC2998 cells by sulforhodamine B assay
SK-MEL-28 [3] = assay: Growth inhibition of human SK-MEL-28 cells assessed as cell growth at 10^-7 M by sulforhodamine B assay; settings: read-out: Activity
CAKI-1 = assay: Growth inhibition of human CAKI-1 cells assessed as cell growth at 10^-7 M by sulforhodamine B assay; settings: read-out: Activity
NCI-H322M [4] = assay: Growth inhibition of human NCI-H322M cells assessed as cell growth at 10^-8 M by sulforhodamine B assay; settings: read-out: Activity
NCI-H322M [5] = assay: Growth inhibition of human NCI-H322M cells assessed as cell growth at 10^-7 M by sulforhodamine B assay; settings: read-out: Activity
[6] = Growth inhibition of human HCC2998 cells assessed as cell growth at 10^-6 M by sulforhodamine B assay; settings: HCC 2998, read-out: Activity
OVCAR-4 = assay: Growth inhibition of human OVCAR4 cells by sulforhodamine B assay
Malme-3M = assay: Growth inhibition of human MALME-3M cells by sulforhodamine B assay
OVCAR-5 = assay: Growth inhibition of human OVCAR5 cells assessed as cell growth at 10^-4 M by sulforhodamine B assay; settings: read-out: Activity
A549 = assay: Growth inhibition of human A549/ATCC cells by sulforhodamine B assay
MCF7 = assay: Growth inhibition of human MCF7 cells assessed as cell growth at 10^-4 M by sulforhodamine B assay; settings: read-out: Activity
NCI-H226 [7] = assay: Growth inhibition of human NCI-H226 cells assessed as cell growth at 10^-6 M by sulforhodamine B assay; settings: read-out: Activity
UO-31 = assay: Growth inhibition of human UO31 cells assessed as cell growth at 10^-6 M by sulforhodamine B assay; settings: read-out: Activity
SK-MEL-2 [8] = assay: Growth inhibition of human SK-MEL-2 cells assessed as cell growth at 10^-6 M by sulforhodamine B assay; settings: read-out: Activity
MDA-MB-231 [9] = assay: Growth inhibition of human MDA-MB-231 cells assessed as cell growth at 10^-7 M by sulforhodamine B assay; settings: read-out: Activity
SF-539 [10] = assay: Growth inhibition of human SF539 cells by sulforhodamine B assay
OVCAR-8 = assay: Growth inhibition of human OVCAR8 cells assessed as cell growth at 10^-6 M by sulforhodamine B assay; settings: read-out: Activity
RXF 393 = assay: Growth inhibition of human RXF393 cells by sulforhodamine B assay
SK-MEL-5 = assay: Growth inhibition of human SK-MEL-5 cells assessed as cell growth at 10^-6 M by sulforhodamine B assay; settings: read-out: Activity
NCI-H226 [11] = assay: Growth inhibition of human NCI-H226 cells assessed as cell growth at 10^-7 M by sulforhodamine B assay; settings: read-out: Activity
A498 = assay: Growth inhibition of human A498 cells assessed as cell growth at 10^-7 M by sulforhodamine B assay; settings: read-out: Activity
SN12C = assay: Growth inhibition of human SN12C cells by sulforhodamine B assay
COLO 205 = assay: Growth inhibition of human COLO205 cells assessed as cell growth at 10^-8 M by sulforhodamine B assay; settings: read-out: Activity
OVCAR-3 = assay: Growth inhibition of human OVCAR3 cells assessed as cell growth at 10^-6 M by sulforhodamine B assay; settings: read-out: Activity
SK-MEL-28 [12] = assay: Growth inhibition of human SK-MEL-28 cells by sulforhodamine B assay
MDA-MB-231 [13] = assay: Growth inhibition of human MDA-MB-231 cells assessed as cell growth at 10^-4 M by sulforhodamine B assay; settings: read-out: Activity
SF-268 = assay: Growth inhibition of human SF268 cells by sulforhodamine B assay
DU-145 = assay: Growth inhibition of human DU145 cells assessed as cell growth at 10^-4 M by sulforhodamine B assay; settings: read-out: Activity
SK-MEL-2 [14] = assay: Growth inhibition of human SK-MEL-2 cells assessed as cell growth at 10^-4 M by sulforhodamine B assay; settings: read-out: Activity
SF-539 [15] = assay: Growth inhibition of human SF539 cells assessed as cell growth at 10^-8 M by sulforhodamine B assay; settings: read-out: Activity
NCI-H23 = assay: Growth inhibition of human NCI-H23 cells assessed as cell growth at 10^-4 M by sulforhodamine B assay; settings: read-out: Activity
ACHN [16] = assay: Growth inhibition of human ACHN cells assessed as cell growth at 10^-8 M by sulforhodamine B assay; settings: read-out: Activity
HL-60(TB) = assay: Growth inhibition of human HL-60(TB) cells assessed as cell growth at 10^-7 M by sulforhodamine B assay; settings: read-out: Activity
[17] = read-out: LC50 (the source's name)
[18] = read-out: pLC50 (the source's name) (converted)

Compound: CC1(C)C[C@@H](O)[C@]2(C(=O)O)CC[C@]3(C)C(=CC[C@@H]4[C@@]5(C)C/C(=C\C=C\c6ccccc6)C(=O)C(C)(C)[C@@H]5CC[C@]43C)[C@@H]2C1
- GI50 (ACHN [1]; read-out: GI50): 3.65 µM
- CC50 (ACHN [1]; [17]): 39.2 µM
- TGI (ACHN [1]; read-out: TGI): 13.3 µM
- GI50 (ACHN [1]; read-out: pGI50 (converted)): 3.63 µM
- CC50 (ACHN [1]; [18]): 38.9 µM
- TGI (ACHN [1]; read-out: pTGI (converted)): 13.2 µM
- growth at 100 µM (SW-620): -57%
- growth at 0.01 µM (MDA-MB-468): 95%
- GI50 (SR; read-out: GI50): 2.48 µM
- CC50 (SR; [17]): > 100 µM
- TGI (SR; read-out: TGI): 6.91 µM
- GI50 (SR; read-out: pGI50 (converted)): 2.45 µM
- CC50 (SR; [18]): > 100 µM
- TGI (SR; read-out: pTGI (converted)): 6.92 µM
- GI50 ([2]; HCC 2998, read-out: GI50): 2.95 µM
- CC50 ([2]; HCC 2998, read-out: LC50 (the source's name)): 27.9 µM
- TGI ([2]; HCC 2998, read-out: TGI): 7.55 µM
- GI50 ([2]; HCC 2998, read-out: pGI50 (converted)): 2.95 µM
- CC50 ([2]; HCC 2998, read-out: pLC50 (the source's name) (converted)): 28.2 µM
- TGI ([2]; HCC 2998, read-out: pTGI (converted)): 7.59 µM
- growth at 0.1 µM (SK-MEL-28 [3]): 102%
- growth at 0.1 µM (CAKI-1): 97%
- growth at 0.01 µM (NCI-H322M [4]): 98%
- growth at 0.1 µM (NCI-H322M [5]): 96%
- growth at 1 µM [6]: 108%
- GI50 (OVCAR-4; read-out: GI50): 3.85 µM
- CC50 (OVCAR-4; [17]): 40.2 µM
- TGI (OVCAR-4; read-out: TGI): 15.4 µM
- GI50 (OVCAR-4; read-out: pGI50 (converted)): 3.89 µM
- CC50 (OVCAR-4; [18]): 39.8 µM
- TGI (OVCAR-4; read-out: pTGI (converted)): 15.5 µM
- GI50 (Malme-3M; read-out: GI50): 2.57 µM
- CC50 (Malme-3M; [17]): 59.2 µM
- TGI (Malme-3M; read-out: TGI): 7.23 µM
- GI50 (Malme-3M; read-out: pGI50 (converted)): 2.57 µM
- CC50 (Malme-3M; [18]): 58.9 µM
- TGI (Malme-3M; read-out: pTGI (converted)): 7.24 µM
- growth at 100 µM (OVCAR-5): -97%
- GI50 (A549; read-out: GI50): 2.8 µM
- CC50 (A549; [17]): 63.4 µM
- TGI (A549; read-out: TGI): 11.2 µM
- GI50 (A549; read-out: pGI50 (converted)): 2.82 µM
- CC50 (A549; [18]): 63.1 µM
- TGI (A549; read-out: pTGI (converted)): 11.2 µM
- growth at 100 µM (MCF7): -68%
- growth at 1 µM (NCI-H226 [7]): 83%
- growth at 1 µM (UO-31): 92%
- growth at 1 µM (SK-MEL-2 [8]): 100%
- growth at 0.1 µM (MDA-MB-231 [9]): 102%
- GI50 (SF-539 [10]; read-out: GI50): 2.86 µM
- CC50 (SF-539 [10]; [17]): 36.7 µM
- TGI (SF-539 [10]; read-out: TGI): 10.6 µM
- GI50 (SF-539 [10]; read-out: pGI50 (converted)): 2.88 µM
- CC50 (SF-539 [10]; [18]): 36.3 µM
- TGI (SF-539 [10]; read-out: pTGI (converted)): 10.7 µM
- growth at 1 µM (OVCAR-8): 93%
- GI50 (RXF 393; read-out: GI50): 2.65 µM
- CC50 (RXF 393; [17]): 29.7 µM
- TGI (RXF 393; read-out: TGI): 7.65 µM
- GI50 (RXF 393; read-out: pGI50 (converted)): 2.63 µM
- CC50 (RXF 393; [18]): 29.5 µM
- TGI (RXF 393; read-out: pTGI (converted)): 7.59 µM
- growth at 1 µM (SK-MEL-5): 95%
- growth at 0.1 µM (NCI-H226 [11]): 92%
- growth at 0.1 µM (A498): 78%
- GI50 (SN12C; read-out: GI50): 2.92 µM
- CC50 (SN12C; [17]): 36.1 µM
- TGI (SN12C; read-out: TGI): 10.7 µM
- GI50 (SN12C; read-out: pGI50 (converted)): 2.88 µM
- CC50 (SN12C; [18]): 36.3 µM
- TGI (SN12C; read-out: pTGI (converted)): 10.7 µM
- growth at 0.01 µM (COLO 205): 103%
- growth at 1 µM (OVCAR-3): 92%
- GI50 (SK-MEL-28 [12]; read-out: GI50): 4.37 µM
- CC50 (SK-MEL-28 [12]; [17]): 51.8 µM
- TGI (SK-MEL-28 [12]; read-out: TGI): 17 µM
- GI50 (SK-MEL-28 [12]; read-out: pGI50 (converted)): 4.37 µM
- CC50 (SK-MEL-28 [12]; [18]): 51.3 µM
- TGI (SK-MEL-28 [12]; read-out: pTGI (converted)): 17 µM
- growth at 100 µM (MDA-MB-231 [13]): -93%
- GI50 (SF-268; read-out: GI50): 3.36 µM
- LC50 (SF-268; read-out: LC50): 45.5 µM
- TGI (SF-268; read-out: TGI): 14 µM
- GI50 (SF-268; read-out: pGI50 (converted)): 3.39 µM
- LC50 (SF-268; read-out: pLC50 (converted)): 45.7 µM
- TGI (SF-268; read-out: pTGI (converted)): 14.1 µM
- growth at 100 µM (DU-145): -92%
- growth at 100 µM (SK-MEL-2 [14]): -72%
- growth at 0.01 µM (SF-539 [15]): 93%
- growth at 100 µM (NCI-H23): -83%
- growth at 0.01 µM (ACHN [16]): 97%
- growth at 0.1 µM (HL-60(TB)): 108%
